{"source": "the NIST ThermoML archive (doi:10.1021/je800998u)", "conditions": "for molar entropy / mass density: 101.33 kPa; for molar entropy: Small (less than 1 g) adiabatic calorimetry; for mass density: Pycnometric method; for vapor or sublimation pressure: Ebulliometric method (Recirculating still); for Triple point temperature: Adiabatic calorimetry", "note": "Numbers after ± are expanded uncertainties."}
{"smiles": "CC(C)COCC(C)C", "note": "[diisobutyl ether]", "values": [{"measurement": "molar entropy", "setting": "10 K, Crystal 2", "result": "0.4387 ± 0.041", "unit": "J/K/mol"}, {"measurement": "molar entropy", "setting": "15 K, Crystal 2", "result": "2.36 ± 0.08", "unit": "J/K/mol"}, {"measurement": "molar entropy", "setting": "20 K, Crystal 2", "result": "5.506 ± 0.13", "unit": "J/K/mol"}, {"measurement": "molar entropy", "setting": "25 K, Crystal 2", "result": "9.633 ± 0.17", "unit": "J/K/mol"}, {"measurement": "molar entropy", "setting": "30 K, Crystal 2", "result": "14.45 ± 0.26", "unit": "J/K/mol"}, {"measurement": "molar entropy", "setting": "35 K, Crystal 2", "result": "19.69 ± 0.3", "unit": "J/K/mol"}, {"measurement": "molar entropy", "setting": "40 K, Crystal 2", "result": "25.17 ± 0.34", "unit": "J/K/mol"}, {"measurement": "molar entropy", "setting": "45 K, Crystal 2", "result": "30.79 ± 0.38", "unit": "J/K/mol"}, {"measurement": "molar entropy", "setting": "50 K, Crystal 2", "result": "36.49 ± 0.42", "unit": "J/K/mol"}, {"measurement": "molar entropy", "setting": "55 K, Crystal 2", "result": "42.24 ± 0.47", "unit": "J/K/mol"}, {"measurement": "molar entropy", "setting": "60 K, Crystal 2", "result": "48.03 ± 0.51", "unit": "J/K/mol"}, {"measurement": "molar entropy", "setting": "65 K, Crystal 2", "result": "53.84 ± 0.55", "unit": "J/K/mol"}, {"measurement": "molar entropy", "setting": "70 K, Crystal 2", "result": "59.61 ± 0.6", "unit": "J/K/mol"}, {"measurement": "molar entropy", "setting": "75 K, Crystal 2", "result": "65.3 ± 0.64", "unit": "J/K/mol"}, {"measurement": "molar entropy", "setting": "80 K, Crystal 2", "result": "70.92 ± 0.68", "unit": "J/K/mol"}, {"measurement": "molar entropy", "setting": "85 K, Crystal 2", "result": "76.51 ± 0.72", "unit": "J/K/mol"}, {"measurement": "molar entropy", "setting": "90 K, Crystal 2", "result": "82.09 ± 0.79", "unit": "J/K/mol"}, {"measurement": "molar entropy", "setting": "95 K, Crystal 2", "result": "87.65 ± 0.83", "unit": "J/K/mol"}, {"measurement": "molar entropy", "setting": "100 K, Crystal 2", "result": "93.17 ± 0.86", "unit": "J/K/mol"}, {"measurement": "molar entropy", "setting": "110 K, Crystal 2", "result": "104 ± 0.9", "unit": "J/K/mol"}, {"measurement": "molar entropy", "setting": "120 K, Crystal 2", "result": "114.8 ± 1", "unit": "J/K/mol"}, {"measurement": "molar entropy", "setting": "130 K, Crystal 2", "result": "125.4 ± 1.1", "unit": "J/K/mol"}, {"measurement": "molar entropy", "setting": "140 K, Crystal 2", "result": "135.9 ± 1.1", "unit": "J/K/mol"}, {"measurement": "molar entropy", "setting": "150 K, Crystal 2", "result": "146.4 ± 1.2", "unit": "J/K/mol"}, {"measurement": "molar entropy", "setting": "160 K, Crystal 2", "result": "157.1 ± 1.2", "unit": "J/K/mol"}, {"measurement": "molar entropy", "setting": "170.71 K, Crystal 1", "result": "179.1 ± 1.4", "unit": "J/K/mol"}, {"measurement": "molar entropy", "setting": "170.71 K, Crystal 2", "result": "168.6 ± 1.3", "unit": "J/K/mol"}, {"measurement": "molar entropy", "setting": "180 K, Crystal 1", "result": "188.8 ± 1.4", "unit": "J/K/mol"}, {"measurement": "molar entropy", "setting": "190.4 K, Crystal 1", "result": "200.4 ± 1.5", "unit": "J/K/mol"}, {"measurement": "molar entropy", "setting": "190.4 K, Liquid", "result": "259.9 ± 1.9", "unit": "J/K/mol"}, {"measurement": "molar entropy", "setting": "200 K, Liquid", "result": "272.1 ± 1.9", "unit": "J/K/mol"}, {"measurement": "molar entropy", "setting": "210 K, Liquid", "result": "284 ± 2", "unit": "J/K/mol"}, {"measurement": "molar entropy", "setting": "220 K, Liquid", "result": "295.5 ± 2.1", "unit": "J/K/mol"}, {"measurement": "molar entropy", "setting": "230 K, Liquid", "result": "306.6 ± 2.1", "unit": "J/K/mol"}, {"measurement": "molar entropy", "setting": "240 K, Liquid", "result": "317.3 ± 2.2", "unit": "J/K/mol"}, {"measurement": "molar entropy", "setting": "250 K, Liquid", "result": "327.8 ± 2.3", "unit": "J/K/mol"}, {"measurement": "molar entropy", "setting": "260 K, Liquid", "result": "338 ± 2.3", "unit": "J/K/mol"}, {"measurement": "molar entropy", "setting": "270 K, Liquid", "result": "348 ± 2.4", "unit": "J/K/mol"}, {"measurement": "molar entropy", "setting": "280 K, Liquid", "result": "357.7 ± 2.4", "unit": "J/K/mol"}, {"measurement": "molar entropy", "setting": "290 K, Liquid", "result": "367.2 ± 2.5", "unit": "J/K/mol"}, {"measurement": "mass density", "setting": "298.06 K, Liquid", "result": "748.62 ± 0.79", "unit": "kg/m3"}, {"measurement": "mass density", "setting": "298.07 K, Liquid", "result": "748.49 ± 0.82", "unit": "kg/m3"}, {"measurement": "mass density", "setting": "298.09 K, Liquid", "result": "748.45 ± 0.82", "unit": "kg/m3"}, {"measurement": "mass density", "setting": "298.14 K, Liquid", "result": "748.69 ± 0.82", "unit": "kg/m3"}, {"measurement": "molar entropy", "setting": "298.15 K, Liquid", "result": "374.8 ± 2.5", "unit": "J/K/mol"}, {"measurement": "mass density", "setting": "298.18 K, Liquid", "result": "748.69 ± 0.82", "unit": "kg/m3"}, {"measurement": "mass density", "setting": "298.22 K, Liquid", "result": "748.09 ± 1", "unit": "kg/m3"}, {"measurement": "molar entropy", "setting": "300 K, Liquid", "result": "376.5 ± 2.6", "unit": "J/K/mol"}, {"measurement": "mass density", "setting": "302.68 K, Liquid", "result": "743.72 ± 0.79", "unit": "kg/m3"}, {"measurement": "mass density", "setting": "302.73 K, Liquid", "result": "744.19 ± 1.1", "unit": "kg/m3"}, {"measurement": "mass density", "setting": "302.79 K, Liquid", "result": "743.67 ± 0.91", "unit": "kg/m3"}, {"measurement": "mass density", "setting": "302.81 K, Liquid", "result": "744.14 ± 0.79", "unit": "kg/m3"}, {"measurement": "mass density", "setting": "302.83 K, Liquid", "result": "743.5 ± 0.98", "unit": "kg/m3"}, {"measurement": "mass density", "setting": "302.86 K, Liquid", "result": "743.47 ± 0.82", "unit": "kg/m3"}, {"measurement": "molar entropy", "setting": "310 K, Liquid", "result": "385.6 ± 2.6", "unit": "J/K/mol"}, {"measurement": "mass density", "setting": "312.72 K, Liquid", "result": "733.67 ± 0.78", "unit": "kg/m3"}, {"measurement": "mass density", "setting": "312.95 K, Liquid", "result": "733.53 ± 0.78", "unit": "kg/m3"}, {"measurement": "mass density", "setting": "312.99 K, Liquid", "result": "733.64 ± 0.78", "unit": "kg/m3"}, {"measurement": "mass density", "setting": "313.02 K, Liquid", "result": "733.56 ± 0.78", "unit": "kg/m3"}, {"measurement": "mass density", "setting": "313.03 K, Liquid", "result": "734 ± 0.93", "unit": "kg/m3"}, {"measurement": "molar entropy", "setting": "320 K, Liquid", "result": "394.6 ± 2.7", "unit": "J/K/mol"}, {"measurement": "molar entropy", "setting": "330 K, Liquid", "result": "403.5 ± 2.7", "unit": "J/K/mol"}, {"measurement": "vapor or sublimation pressure", "setting": "330.9 K, Liquid", "result": "10.75 ± 0.026", "unit": "kPa"}, {"measurement": "vapor or sublimation pressure", "setting": "336.08 K, Liquid", "result": "13.37 ± 0.03", "unit": "kPa"}, {"measurement": "molar entropy", "setting": "340 K, Liquid", "result": "412.1 ± 2.8", "unit": "J/K/mol"}, {"measurement": "vapor or sublimation pressure", "setting": "341.66 K, Liquid", "result": "16.76 ± 0.037", "unit": "kPa"}, {"measurement": "vapor or sublimation pressure", "setting": "347.21 K, Liquid", "result": "20.79 ± 0.045", "unit": "kPa"}, {"measurement": "molar entropy", "setting": "350 K, Liquid", "result": "420.8 ± 2.8", "unit": "J/K/mol"}, {"measurement": "vapor or sublimation pressure", "setting": "352.09 K, Liquid", "result": "24.97 ± 0.053", "unit": "kPa"}, {"measurement": "vapor or sublimation pressure", "setting": "357.89 K, Liquid", "result": "30.79 ± 0.064", "unit": "kPa"}, {"measurement": "molar entropy", "setting": "360 K, Liquid", "result": "429.3 ± 2.9", "unit": "J/K/mol"}, {"measurement": "vapor or sublimation pressure", "setting": "363.27 K, Liquid", "result": "37.12 ± 0.077", "unit": "kPa"}, {"measurement": "vapor or sublimation pressure", "setting": "369.46 K, Liquid", "result": "45.66 ± 0.094", "unit": "kPa"}, {"measurement": "molar entropy", "setting": "370 K, Liquid", "result": "437.7 ± 2.9", "unit": "J/K/mol"}, {"measurement": "vapor or sublimation pressure", "setting": "375.78 K, Liquid", "result": "55.91 ± 0.11", "unit": "kPa"}, {"measurement": "vapor or sublimation pressure", "setting": "381.77 K, Liquid", "result": "67.26 ± 0.14", "unit": "kPa"}, {"measurement": "vapor or sublimation pressure", "setting": "388.15 K, Liquid", "result": "81.3 ± 0.16", "unit": "kPa"}, {"measurement": "vapor or sublimation pressure", "setting": "392.78 K, Liquid", "result": "92.88 ± 0.19", "unit": "kPa"}, {"measurement": "vapor or sublimation pressure", "setting": "393.58 K, Liquid", "result": "95 ± 0.19", "unit": "kPa"}, {"measurement": "vapor or sublimation pressure", "setting": "394.37 K, Liquid", "result": "97.12 ± 0.2", "unit": "kPa"}, {"measurement": "vapor or sublimation pressure", "setting": "395.14 K, Liquid", "result": "99.28 ± 0.2", "unit": "kPa"}, {"measurement": "Triple point temperature", "setting": "Crystal 1", "result": "190.4 ± 0.15", "unit": "K"}, {"measurement": "Triple point temperature", "setting": "Crystal 2", "result": "170.71 ± 0.4", "unit": "K"}]}
